{"source": "patent US20120046249A1", "about": "“METHODS OF REDUCING THE RISK OF CARDIOVASCULAR DISEASE IN POSTMENOPAUSAL WOMEN” (priority 2008, published 2012)", "type_in_all_cases": "in vivo, human", "key": {"[1]": {"assay": "Serum lipids (commercial laboratory), 2-year RCT of SDD versus placebo", "conditions": "subgroup: women more than 5 years postmenopausal", "source_text": "(§1) The objective of this study was to determine whether sub-antimicrobial-dose-doxycycline (SDD) can reduce serum inflammatory biomarkers associated with cardiovascular disease (CVD) risk (primary outcome: CRP) in a two-year, randomized controlled clinical trial (RCT) in postmenopausal (PM) women with systemic osteopenia and periodontitis. 113 women who completed the RCT (SDD group: n=51; placebo group: n=62) consented at the final (two-year) study visit for their baseline, one-year and two-year serum samples to be analyzed for serum inflammatory biomarkers. Analyses by ELISA included CRP (high-sensitivity ELISA), IL-6, myeloperoxidase (MPO), IL-1β and TNF-α. Serum lipids (total cholesterol, HDL cholesterol, LDL cholesterol, VLDL cholesterol, and triglycerides) were analyzed by a commercial laboratory. Statistical analyses were performed using Generalized Estimating Equations; primary analyses were intent-to-treat (ITT). Pre-specified subgroup analyses also were performed. All results are presented as ratios of median values (SDD versus placebo) unless otherwise indicated."}, "[2]": {"test_system": "MMP-2", "assay": "Serum MMP-2 by gelatin zymography, 2-year randomized clinical trial of SDD versus placebo", "conditions": "per-protocol analysis, p=0.03, SDD minus placebo", "source_text": "(§2) Elevated circulating MMP 9 has been associated with increased risk for fatal cardiac events and PM are considered a population vulnerable, due to decreased estrogen levels, to cardiovascular disease.\n(§3) Details concerning subject inclusion and exclusion criteria have been published previously (Payne et al., J. Clin. Periodontol. 34:776-787, 2007). Briefly, subjects were 45-70 years of age at telephone screening, postmenopausal, osteopenic at the lumbar spine or femoral neck, and not receiving hormone replacement therapy (HRT). […] The subjects also had to be in good general health without co-morbidities that could have interfered with adherence to the study protocol, planned follow-up or endpoint measurement.\n(§4) 113 PM women who completed the randomized clinical trial (RCT) consented at the final (two-year) study visit for the analysis of stored serum samples. 51 subjects received SDD (20 mg doxycycline) and 62 received placebo tablets b.i.d. for 2 years. Serum samples were collected at the baseline, 1-year and 2-year appointments and frozen at −80° C. until analyzed. MMPs were measured by gelatin zymography using denatured type I collagen as a substrate and purified MMP-2 (72 kDa) and MMP-9 (92 kDa) as standards. Gelatinolytic bands were scanned densitometrically. Statistical analyses were performed using Generalized Estimating Equations. Primary analyses were intent-to-treat (ITT). […]"}, "[3]": {"test_system": "MMP-9", "assay": "Serum MMP-9 by gelatin zymography, 2-year randomized clinical trial of SDD versus placebo", "conditions": "postmenopausal osteopenic women with periodontitis, 20 mg doxycycline b.i.d. for 2 years, 92 kDa gelatinase", "source_text": "as §2, §3, §4"}, "[4]": {"test_system": "CRP", "assay": "Serum CRP by high-sensitivity ELISA, 2-year RCT of SDD versus placebo", "conditions": "intent-to-treat", "source_text": "The objective of this study was to determine whether sub-antimicrobial-dose-doxycycline (SDD) can reduce serum inflammatory biomarkers associated with cardiovascular disease (CVD) risk (primary outcome: CRP) in a two-year, randomized controlled clinical trial (RCT) in postmenopausal (PM) women with systemic osteopenia and periodontitis.\nas §1, with “113” for “The objective of this study was to determine whether sub-antimicrobial-dose-doxycycline (SDD) can reduce serum inflammatory biomarkers associated with cardiovascular disease (CVD) risk (primary outcome: CRP) in a two-year, randomized controlled clinical trial (RCT) in postmenopausal (PM) women with systemic osteopenia and periodontitis. 113”"}, "[5]": {"test_system": "MMP-8/TIMP-1", "assay": "Median MMP-8/TIMP-1 ratio, further analysis of the 2-year RCT", "conditions": "women within five years of menopause, at two years"}}, "data": [{"smiles": "C[C@H]1c2cccc(O)c2C(=O)C2=C(O)[C@]3(O)C(=O)C(C(N)=O)=C(O)[C@@H](N(C)C)[C@@H]3[C@@H](O)[C@@H]21", "note": "[SDD, 6α-deoxy-5-hydroxytetracycline]", "values": [{"measurement": "VLDL cholesterol, ratio of median values (SDD versus placebo)", "setting": "[1]; 95% CI 0.76 to 1.00, p=0.06", "result": 0.87}, {"measurement": "triglycerides, ratio of median values (SDD versus placebo)", "setting": "[1]; 95% CI 0.76 to 1.01, p=0.06", "result": 0.87}, {"measurement": "increase in HDL cholesterol over time (difference in means)", "setting": "[1]; 95% CI 1.17 to 10.81, p=0.01", "result": 5.99, "unit": "mg/dL"}, {"measurement": "reduction of serum MMP-2, 2-year values (average)", "setting": "[2]", "result": 16.5, "unit": "units"}, {"measurement": "reduction of serum MMP-9 levels (difference in means, SDD minus placebo)", "setting": "[3]; intent-to-treat analysis", "result": 28.4, "unit": "scanning units"}, {"measurement": "reduction of serum MMP-9 levels (difference in means, SDD minus placebo)", "setting": "[3]; per-protocol analysis", "result": 29.4, "unit": "scanning units"}, {"measurement": "reduction of median CRP levels compared to placebo", "setting": "[4]; 2-year RCT, serum", "result": 18, "unit": "%"}, {"measurement": "CRP, ratio of median values (SDD versus placebo)", "setting": "[4]; 95% CI 0.70 to 0.97, p=0.02", "result": 0.82}, {"measurement": "reduction of median MMP-8/TIMP-1 ratio", "setting": "[5]", "result": 49, "unit": "%"}, {"measurement": "MMP-8/TIMP-1, ratio of medians (SDD relative to placebo)", "setting": "[5]; 95% CI 0.31 to 0.82, p=0.006", "result": 0.51}]}]}
